Results published in patent US20090234162A1, “Radioactive Halogen-Labeled Phenyloxyaniline Derivatives” (Taisho Pharmaceutical Co., Ltd., priority 2005, published 2009).

How the values were obtained:
[1] = target: peripheral benzodiazepine receptor (PBR) (Homo sapiens, UniProt P30536); conditions: background art, Patent Documents 1 and 2; cited from earlier work
intracerebral PBR = target: T1, intracerebral PBR (Homo sapiens, UniProt P30536); conditions: 11C-labeled ligand, PET, living human brain; cited from earlier work
T1 construct: In imaging the intracerebral PBR distribution of a living human brain with positron emission tomograph (PET); host or cells: living human brain (PET)
T1 sequence (P30536 whole entry): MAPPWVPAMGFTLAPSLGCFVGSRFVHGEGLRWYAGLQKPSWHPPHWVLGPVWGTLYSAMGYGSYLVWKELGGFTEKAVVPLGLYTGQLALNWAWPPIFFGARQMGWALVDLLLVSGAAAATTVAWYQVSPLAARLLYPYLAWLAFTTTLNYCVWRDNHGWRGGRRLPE

[2] = target: T2, peripheral benzodiazepine receptors (Rattus norvegicus, UniProt P16257); assay: Ex vivo autoradiography of rat brain; format: in vivo
T2 construct: from tissue
Description: FIGS. 1 and 2 show cerebral ex vivo autoradiograms taken in 30 minutes after [^131I]2IDAA1106 was administered to a rat. […] In particular, radioactivity levels in the olfactory bulb, choroid plexus and cerebellum decreased remarkably and were equal to or less than 20% of FIG. 1.

[3] = rat, brain 30 minutes after administration, FIG. 1

peripheral benzodiazepine receptor (PBR), sequence (P30536 whole entry, species assumed): as the sequence (P30536 whole entry) above

| SMILES | affinity as PBR ligand [1] | selectivity as PBR ligand [1] | further results |
| --- | --- | --- | --- |
| COc1ccc(OC)c(CN(C(C)=O)c2cc(F)ccc2Oc2ccccc2)c1 [DAA1106, N-(2,5-dimethoxybenzyl)-N-(5-fluoro-2-phenoxyphenyl)acetamide] | strong affinity | high selectivity | – |
| COc1ccc(OCCF)c(CN(C(C)=O)c2cc(F)ccc2Oc2ccccc2)c1 [FEDAA1106, N-[2-(2-fluoro)ethyl-5-methoxybenzyl]-N-(5-fluoro-2-phenoxyphenyl)acetamide] | strong affinity | high selectivity | – |
| COc1ccc(CF)c(CN(C(C)=O)c2cc(F)ccc2Oc2ccccc2)c1 [FMDAA1106, N-(2-fluoromethyl-5-methoxybenzyl)-N-(5-fluoro-2-phenoxyphenyl)acetamide] | strong affinity | high selectivity | – |
| CCC(C)N(C)C(=O)c1cc2ccccc2c(-c2ccccc2Cl)n1 (stereo not drawn) [PK 11195, N-methyl-N-(1-methylpropyl)-1-(2-chlorophenyl)-isoquinoline-3-carboxamide] | – | – | accumulation in the brain (intracerebral PBR): extremely low accumulation in the brain |
| COc1ccc([131I])c(CN(C(C)=O)c2cc(F)ccc2Oc2ccccc2)c1 [[^131I]2IDAA1106, N-(2-[^131I]iodo-5-methoxybenzyl)-N-(5-fluoro-2-phenoxyphenyl)acetamide] | – | – | specificity as radioligand ([2]; conclusion from distribution profile and DAA1106 blocking): specific to peripheral benzodiazepine receptors; radioactivity levels in the olfactory bulb, choroid plexus and cerebellum relative to FIG. 1 ([2]; rat, 30 minutes, co-administration of DAA1106, FIG. 2 as % of FIG. 1): ≤ 20%; radioactivity distribution in the whole brain when DAA1106 administered at the same time ([2]; rat, 30 minutes, co-administration of DAA1106, FIG. 2 versus FIG. 1): decreased in the whole brain; brain permeability characteristics [2, 3]: relatively high brain permeability characteristics; radioactivity distribution at the olfactory bulb, choroid plexus and cerebellum [2, 3]: relatively high radioactivity distribution |
